Results taken from patent US11053204B2, “Pyrimidinyloxy benzene derivatives as herbicides” (FMC Corporation, priority 2015, dated 2021).

Experiments:
Format in all cases: in vivo
[1] = test system: crabgrass, large (large crabgrass, Digitaria sanguinalis); assay: Test C preemergence, plant response rating; settings: Preemergence
Outline: (§1)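 After sowing in loam–sand blend or silt loam, pots were sprayed preemergence; separately grown 1- to 4-leaf plants were sprayed postemergence. Following 13 to 15 d under greenhouse conditions, injury was rated visually on a 0 to 100 scale.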

[2] = test system: waterhemp (common waterhemp, Amaranthus rudis); assay: Test C preemergence, plant response rating; settings: Preemergence
Outline: as §1

[3] = test system: velvetleaf (Abutilon theophrasti); assay: Test C preemergence, plant response rating; settings: Preemergence
Outline: as §1

[4] = test system: blackgrass (Alopecurus myosuroides); assay: Test C preemergence, plant response rating; settings: Preemergence
Outline: as §1

[5] = test system: ragweed (common ragweed, Ambrosia elatior); assay: Test C preemergence, plant response rating; settings: Preemergence
Outline: as §1

soybean (Glycine max) = assay: Test C preemergence, plant response rating; settings: Preemergence
Outline: as §1

[6] = test system: lambsquarters (Chenopodium album); assay: Test C preemergence, plant response rating; settings: Preemergence
Outline: as §1

[7] = test system: ryegrass, Italian (Italian ryegrass, Lolium multiflorum); assay: Test C preemergence, plant response rating; settings: Preemergence
Outline: as §1

[8] = test system: wheat (winter wheat, Triticum aestivum); assay: Test C preemergence, plant response rating; settings: Preemergence
Outline: as §1

[9] = test system: oilseed rape (Brassica napus); assay: Test C preemergence, plant response rating; settings: Preemergence
Outline: as §1

[10] = test system: morningglory (Ipomoea coccinea); assay: Test C preemergence, plant response rating; settings: Preemergence
Outline: as §1

[11] = test system: foxtail, giant (giant foxtail, Setaria faberii); assay: Test C preemergence, plant response rating; settings: Preemergence
Outline: as §1

corn (Zea mays) = assay: Test C preemergence, plant response rating; settings: Preemergence
Outline: as §1

[12] = test system: nutsedge, yellow (yellow nutsedge, Cyperus esculentus); assay: Test C preemergence, plant response rating; settings: Preemergence
Outline: as §1

[13] = test system: Italian ryegrass (Lolium multiflorum); assay: Test A preemergence, visual injury rating; settings: for Plant response rating, Ryegrass, Italian: 31 g ai/ha, 0 to 100 scale, 0 no effect, 100 complete control; for Ryegrass, Italian plant response rating: 125 g ai/ha, 0 to 100 scale (0 no effect, 100 complete control)
Outline: (§2)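 Visual 0–100 rating (100 = complete control) taken about 10 d post-treatment relative to untreated checks. Preemergence: directed soil spray on sown loam/sand pots. Postemergence: seedlings 2–10 cm, 1–2 leaf. Non-phytotoxic solvent formulation with surfactant.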

[14] = test system: giant foxtail (Setaria faberii); assay: Test A preemergence, visual injury rating; settings: for Plant response rating, Foxtail, Giant: 31 g ai/ha, 0 to 100 scale, 0 no effect, 100 complete control; for Foxtail, Giant plant response rating: 125 g ai/ha, 0 to 100 scale (0 no effect, 100 complete control)
Outline: as §2

[15] = test system: ragweed (common ragweed, Ambrosia elatior); assay: Test A preemergence, visual injury rating; settings: for Plant response rating, Ragweed: 31 g ai/ha, 0 to 100 scale, 0 no effect, 100 complete control; for Ragweed plant response rating: 125 g ai/ha, 0 to 100 scale (0 no effect, 100 complete control)
Outline: as §2

[16] = test system: barnyardgrass (Echinochloa crus-galli); assay: Test A preemergence, visual injury rating; settings: for Plant response rating, Barnyardgrass: 31 g ai/ha, 0 to 100 scale, 0 no effect, 100 complete control; for Barnyardgrass plant response rating: 125 g ai/ha, 0 to 100 scale (0 no effect, 100 complete control)
Outline: as §2

FC(F)(F)CCCc1c(Br)cccc1Oc1ncc(Cl)cn1 [Compound 89]
Plant response rating, Crabgrass, Large ([1]; 125 g ai/ha, scale of 0 to 100): 98
Plant response rating, Crabgrass, Large ([1]; 16 g ai/ha, scale 0 to 100): 75
Plant response rating, Crabgrass, Large ([1]; 31 g ai/ha, scale 0 to 100): 98
Plant response rating, Crabgrass, Large ([1]; 62 g ai/ha, scale 0 to 100): 100
Plant response rating, Waterhemp ([2]; 125 g ai/ha, scale of 0 to 100): 100
Plant response rating, Waterhemp ([2]; 31 g ai/ha, scale 0 to 100): 85
Plant response rating, Waterhemp ([2]; 62 g ai/ha, scale 0 to 100): 100
Plant response rating, Velvetleaf ([3]; 125 g ai/ha, scale of 0 to 100): 60
Plant response rating, Velvetleaf ([3]; 31 g ai/ha, scale 0 to 100): 20
Plant response rating, Velvetleaf ([3]; 62 g ai/ha, scale 0 to 100): 25
Plant response rating, Blackgrass ([4]; 125 g ai/ha, scale of 0 to 100): 90
Plant response rating, Blackgrass ([4]; 16 g ai/ha, scale 0 to 100): 5
Plant response rating, Blackgrass ([4]; 31 g ai/ha, scale 0 to 100): 15
Plant response rating, Blackgrass ([4]; 62 g ai/ha, scale 0 to 100): 85
Plant response rating, Ragweed ([5]; 125 g ai/ha, scale of 0 to 100): 50
Plant response rating, Ragweed ([5]; 31 g ai/ha, scale 0 to 100): 0
Plant response rating, Ragweed ([5]; 62 g ai/ha, scale 0 to 100): 5
Plant response rating, Soybean (soybean (Glycine max); 125 g ai/ha, scale of 0 to 100): 10
Plant response rating, Soybean (soybean (Glycine max); 31 g ai/ha, scale 0 to 100): 5
Plant response rating, Soybean (soybean (Glycine max); 62 g ai/ha, scale 0 to 100): 5
Plant response rating, Lambsquarters ([6]; 125 g ai/ha, scale of 0 to 100): 65
Plant response rating, Lambsquarters ([6]; 31 g ai/ha, scale 0 to 100): 0
Plant response rating, Lambsquarters ([6]; 62 g ai/ha, scale 0 to 100): 0
Plant response rating, Ryegrass, Italian ([7]; 125 g ai/ha, scale of 0 to 100): 40
Plant response rating, Ryegrass, Italian ([7]; 31 g ai/ha, scale 0 to 100): 5
Plant response rating, Ryegrass, Italian ([7]; 62 g ai/ha, scale 0 to 100): 15
Plant response rating, Wheat ([8]; 125 g ai/ha, scale of 0 to 100): 5
Plant response rating, Wheat ([8]; 31 g ai/ha, scale 0 to 100): 0
Plant response rating, Wheat ([8]; 62 g ai/ha, scale 0 to 100): 0
Plant response rating, Oilseed Rape ([9]; 125 g ai/ha, scale of 0 to 100): 15
Plant response rating, Oilseed Rape ([9]; 31 g ai/ha, scale 0 to 100): 0
Plant response rating, Oilseed Rape ([9]; 62 g ai/ha, scale 0 to 100): 0
Plant response rating, Morningglory ([10]; 125 g ai/ha, scale of 0 to 100): 20
Plant response rating, Morningglory ([10]; 31 g ai/ha, scale 0 to 100): 0
Plant response rating, Morningglory ([10]; 62 g ai/ha, scale 0 to 100): 5
Plant response rating, Foxtail, Giant ([11]; 125 g ai/ha, scale of 0 to 100): 85
Plant response rating, Foxtail, Giant ([11]; 31 g ai/ha, scale 0 to 100): 5
Plant response rating, Foxtail, Giant ([11]; 62 g ai/ha, scale 0 to 100): 60
Plant response rating, Corn (corn (Zea mays); 125 g ai/ha, scale of 0 to 100): 10
Plant response rating, Corn (corn (Zea mays); 16 g ai/ha, scale 0 to 100): 0
Plant response rating, Corn (corn (Zea mays); 31 g ai/ha, scale 0 to 100): 0
Plant response rating, Corn (corn (Zea mays); 62 g ai/ha, scale 0 to 100): 0
Plant response rating, Nutsedge, Yellow ([12]; 125 g ai/ha, scale of 0 to 100): 0
Plant response rating, Nutsedge, Yellow ([12]; 31 g ai/ha, scale 0 to 100): 0
Plant response rating, Nutsedge, Yellow ([12]; 62 g ai/ha, scale 0 to 100): 0
Plant response rating, Ryegrass, Italian [13]: 0
Ryegrass, Italian plant response rating [13]: 20
Plant response rating, Foxtail, Giant [14]: 10
Foxtail, Giant plant response rating [14]: 50
Plant response rating, Ragweed [15]: 0
Ragweed plant response rating [15]: 0
Plant response rating, Barnyardgrass [16]: 20
Barnyardgrass plant response rating [16]: 90

O=C(CCC(F)(F)F)c1c(Br)cccc1Oc1ncc(Cl)cn1 [Compound 92]
Plant response rating, Crabgrass, Large ([1]; 125 g ai/ha, scale of 0 to 100): 100
Plant response rating, Crabgrass, Large ([1]; 16 g ai/ha, scale 0 to 100): 100
Plant response rating, Crabgrass, Large ([1]; 31 g ai/ha, scale 0 to 100): 100
Plant response rating, Crabgrass, Large ([1]; 62 g ai/ha, scale 0 to 100): 100
Plant response rating, Waterhemp ([2]; 125 g ai/ha, scale of 0 to 100): 100
Plant response rating, Waterhemp ([2]; 31 g ai/ha, scale 0 to 100): 100
Plant response rating, Waterhemp ([2]; 62 g ai/ha, scale 0 to 100): 100
Plant response rating, Velvetleaf ([3]; 125 g ai/ha, scale of 0 to 100): 100
Plant response rating, Velvetleaf ([3]; 31 g ai/ha, scale 0 to 100): 75
Plant response rating, Velvetleaf ([3]; 62 g ai/ha, scale 0 to 100): 100
Plant response rating, Blackgrass ([4]; 125 g ai/ha, scale of 0 to 100): 100
Plant response rating, Blackgrass ([4]; 16 g ai/ha, scale 0 to 100): 45
Plant response rating, Blackgrass ([4]; 31 g ai/ha, scale 0 to 100): 80
Plant response rating, Blackgrass ([4]; 62 g ai/ha, scale 0 to 100): 100
Plant response rating, Ragweed ([5]; 125 g ai/ha, scale of 0 to 100): 60
Plant response rating, Ragweed ([5]; 31 g ai/ha, scale 0 to 100): 55
Plant response rating, Ragweed ([5]; 62 g ai/ha, scale 0 to 100): 60
Plant response rating, Soybean (soybean (Glycine max); 125 g ai/ha, scale of 0 to 100): 60
Plant response rating, Soybean (soybean (Glycine max); 31 g ai/ha, scale 0 to 100): 40
Plant response rating, Soybean (soybean (Glycine max); 62 g ai/ha, scale 0 to 100): 70
Plant response rating, Lambsquarters ([6]; 125 g ai/ha, scale of 0 to 100): 100
Plant response rating, Lambsquarters ([6]; 31 g ai/ha, scale 0 to 100): 100
Plant response rating, Lambsquarters ([6]; 62 g ai/ha, scale 0 to 100): 100
Plant response rating, Ryegrass, Italian ([7]; 125 g ai/ha, scale of 0 to 100): 95
Plant response rating, Ryegrass, Italian ([7]; 31 g ai/ha, scale 0 to 100): 5
Plant response rating, Ryegrass, Italian ([7]; 62 g ai/ha, scale 0 to 100): 55
Plant response rating, Wheat ([8]; 125 g ai/ha, scale of 0 to 100): 20
Plant response rating, Wheat ([8]; 31 g ai/ha, scale 0 to 100): 0
Plant response rating, Wheat ([8]; 62 g ai/ha, scale 0 to 100): 0
Plant response rating, Oilseed Rape ([9]; 125 g ai/ha, scale of 0 to 100): 100
Plant response rating, Oilseed Rape ([9]; 31 g ai/ha, scale 0 to 100): 100
Plant response rating, Oilseed Rape ([9]; 62 g ai/ha, scale 0 to 100): 100
Plant response rating, Morningglory ([10]; 125 g ai/ha, scale of 0 to 100): 70
Plant response rating, Morningglory ([10]; 31 g ai/ha, scale 0 to 100): 40
Plant response rating, Morningglory ([10]; 62 g ai/ha, scale 0 to 100): 60
Plant response rating, Foxtail, Giant ([11]; 125 g ai/ha, scale of 0 to 100): 100
Plant response rating, Foxtail, Giant ([11]; 31 g ai/ha, scale 0 to 100): 100
Plant response rating, Foxtail, Giant ([11]; 62 g ai/ha, scale 0 to 100): 100
Plant response rating, Corn (corn (Zea mays); 125 g ai/ha, scale of 0 to 100): 40
Plant response rating, Corn (corn (Zea mays); 16 g ai/ha, scale 0 to 100): 0
Plant response rating, Corn (corn (Zea mays); 31 g ai/ha, scale 0 to 100): 15
Plant response rating, Corn (corn (Zea mays); 62 g ai/ha, scale 0 to 100): 35
Plant response rating, Nutsedge, Yellow ([12]; 125 g ai/ha, scale of 0 to 100): 50
Plant response rating, Nutsedge, Yellow ([12]; 31 g ai/ha, scale 0 to 100): 5
Plant response rating, Nutsedge, Yellow ([12]; 62 g ai/ha, scale 0 to 100): 5
Plant response rating, Ryegrass, Italian [13]: 30
Ryegrass, Italian plant response rating [13]: 80
Plant response rating, Foxtail, Giant [14]: 100
Foxtail, Giant plant response rating [14]: 100
Plant response rating, Ragweed [15]: 0
Ragweed plant response rating [15]: 0
Plant response rating, Barnyardgrass [16]: 70
Barnyardgrass plant response rating [16]: 100
